{
  "source": "paper PMC6950057",
  "about": "“Toxicity, Pharmacokinetics, and Gut Microbiome of Oral Administration of Sesterterpene MHO7 Derived from a Marine Fungus” (Marine Drugs, 2019)",
  "test": "Plasma pharmacokinetics after single oral dose",
  "assay_type": "in vivo",
  "conditions": "mice plasma, single oral 500 mg·kg^−1, female mice",
  "description": "Ninety female KM mice of 8–10 weeks of age (20–22 g) were divided randomly into 15 groups, and, after fasting for 12 h, the mice in other experiments were oral administrated at the dose of 500 mg·kg^−1 bw. About 500 μL blood samples were collected at 0.5, 1, 2, 3, 4, 5, 6, 8, 10, 12, 16, 20, 24, 30 and 36 h into heparinized tubes after the intragastric administration of MHO7. All blood samples were immediately centrifuged at 8000 g for 5 min and the resulting plasma was transferred and then processed as described in sample preparation for the analysis by LC-MS/MS. MHO7 levels in plasma were quantified by HPLC–MS/MS. The calibration curve was constructed by plotting the peak area ratio of MHO7 to the internal standard and the linearity was determined by weighted (1/x) linear regression analysis. The regression equation of the calibration curve was then used to calculate the concentration of MHO7 in the plasma. QC samples and standard curve series solutions were prepared in the same way of blank plasma. The concentrations of HQC, MQC, and LQC were 5, 0.5, and 0.05 μM·L^−1, respectively, and the concentrations of standard curve series solutions were 5, 2.5, 1, 0.5, 0.25, 0.1, 0.05, and 0.01 μM·L^−1.\nData for each group are presented as mean ± SD. Statistical significance of different formulations were measured by one-way analysis of variance (ANOVA) followed by the Tukey Kramer multiple comparison test, using SPSS software version 14.0 (SPSS, Chicago, IL, USA), and the statistical significance was expressed by a p-value of less than 0.05. The main pharmacokinetic parameters of MHO7 was fitted by the average mean of a group in each time point with the Phoenix WinNonLin software version 6.3 (Pharsight, Cary, NC, USA). The gut microbiome analysis was performed using the free online platform of Majorbio Cloud Platform (www.majorbio.com).",
  "data": [
    {"compound": "CC(C)=C/C=C/[C@H](C)[C@H]1CC[C@]2(C)C[C@@H]3C(C)=CC(=O)[C@H]3/C(C=O)=C\\C[C@@H]12", "note": "[MHO7, 6-epi-ophiobolin G]", "values": [
      {"measurement": "AUC", "setting": "KM, mouse", "result": 10500, "unit": "ng·h/mL"},
      {"measurement": "Cmax", "setting": "KM, mouse", "result": 1380, "unit": "ng/mL"},
      {"measurement": "MRT", "setting": "KM, mouse", "result": 8.76, "unit": "h"},
      {"measurement": "half-life", "setting": "KM, mouse", "result": 6.97, "unit": "h"},
      {"measurement": "k el", "setting": "KM, mouse, read-out: Lambda_z (converted)", "result": "2.78e-05", "unit": "s⁻¹"},
      {"measurement": "Tmax", "setting": "female, KM, mouse, plasma, po, 500 mg/kg", "result": "~8", "unit": "h"},
      {"measurement": "V/F", "result": 479.02, "unit": "L/kg"}
    ]}
  ]
}
